Measurements: US20230114728A1 (Venatorx Pharmaceuticals, Inc., priority 2019, published 2023)
Converted amounts (≈) assume the structure as drawn.

Legend:
Assay in all cases: Broth microdilution MIC in CAMHB
Type in all cases: cell-based
[1] = system: E. coli D22; settings: Escherichia coli; MHB; hyper-permeable E. coli D22; read-out: Minimum Inhibitory Concentration, E. coli D22
Method: (§1) Example III: In Vitro Antibacterial Assays
(§2) To determine the ability of test compounds to inhibit the growth of bacterial strains, classic cell based broth microdilution minimum inhibitory concentration (MIC) assays were employed. MIC assays are performed according to CLSI methods except where otherwise noted (CLSI, 2018 and CLSI, 2019). The reference type strain E. coli ATCC 25922; the wild-type parent strain E. coli AG100; the hyper-permeable E. coli 901C and E. coli D22; and the E. coli AG100A strain lacking the acrAB efflux pump encoding genes were used to determine the ability of the PBP inhibitors to penetrate the outer membrane of gram-negative bacteria and inhibit bacterial growth. […] The P. aeruginosa ATCC 27853 and A. baumannii ATCC 19606, along with the hyper-permeable P. aeruginosa ATCC 35151 and an engineered efflux pump-compromised strain of P. aeruginosa (ΔmexAB-oprM) were used to determine the ability of PBP inhibitors to penetrate the outer membrane of P. aeruginosa and A. baumannii and assess antibacterial activity against these important gram-negative organisms.
(§3) Briefly, cryo-preserved bacterial cultures of challenge strains are streaked for isolation on appropriate agar medium, in this case cation-adjusted Mueller Hinton agar. Following incubation to allow growth of the colonies, plates are sealed with parafilm and stored refrigerated for up to two weeks. For preparation of assay inoculum and to ensure low variability, at least 5 colonies are picked from the agar plates with an inoculating loop and aseptically transferred to a culture tube containing 3 mL of cation-adjusted Mueller Hinton broth (CAMHB). The broth culture is grown for 3-5 hours at 37° C. with shaking at 200 rpm. Meanwhile, 2-fold serial dilutions of test compounds are conducted in a 96-well plate with a final volume of 75 μL per well at 2-fold the final desired concentration. After the dilution plates are set up the growing cultures are then diluted in a cuvette containing CAMHB and the optical density is measured at 600 nm. The inoculum is diluted such that 75 μL of this culture in CAMHB results in a starting bacterial concentration of 2-8×10^5 CFU/mL when added to the dilution plates. The plates are incubated for 16-20 hours for Enterobacteriaceae and Pseudomonas and 20-24 hours for Acinetobacter at 37° C. The MIC values are read visually as the lowest concentration well with no bacterial growth.

[2] = system: E. coli 901C; settings: Escherichia coli; MHB; hyper-permeable E. coli 901C; read-out: Minimum Inhibitory Concentration, E. coli 901C
Method: as §1, §2, §3

[3] = system: K. pneumoniae UMM producing SHV-5 and KPC-2; settings: Klebsiella pneumoniae, read-out: Minimum Inhibitory Concentration, K. pneumoniae UMM
Method: as §1, §2, §3

[4] = system: P. aeruginosa ATCC 27853; settings: Pseudomonas aeruginosa, ATCC27853; MHB; read-out: Minimum Inhibitory Concentration, P. aeruginosa ATCC 27853
Method: as §1, §2, §3

[5] = system: K. pneumoniae SI-117 producing VIM-1; settings: Klebsiella pneumoniae, read-out: Minimum Inhibitory Concentration, K. pneumoniae SI-117
Method: as §1, §2, §3

[6] = system: E. coli AG100A; settings: Escherichia coli, read-out: Minimum Inhibitory Concentration, E. coli AG100A
Method: as §1, §2, §3

[7] = system: A. baumannii ATCC 19606; settings: Acinetobacter baumannii, ATCC19606; MHB; read-out: Minimum Inhibitory Concentration, A. baumannii ATCC 19606
Method: as §1, §2, §3

[8] = system: E. coli ATCC 25922; settings: Escherichia coli, ATCC25922; MHB; E. coli ATCC 25922; read-out: Minimum Inhibitory Concentration, E. coli 25922
Method: as §1, §2, §3

[9] = system: P. aeruginosa ATCC 35151; settings: Pseudomonas aeruginosa, ATCC35151; MHB; hyper-permeable strain; read-out: Minimum Inhibitory Concentration, P. aeruginosa ATCC 35151
Method: as §1, §2, §3

[10] = system: E. coli AG100; settings: Escherichia coli; MHB; wild-type parent strain E. coli AG100; read-out: Minimum Inhibitory Concentration, E. coli AG100
Method: as §1, §2, §3

[11] = system: K. pneumoniae 848844 producing SHV-11 and KPC-2; settings: Klebsiella pneumoniae, read-out: Minimum Inhibitory Concentration, K. pneumoniae 848844
Method: as §1, §2, §3

[12] = system: P. aeruginosa (ΔmexAB-oprM); settings: Pseudomonas aeruginosa, read-out: Minimum Inhibitory Concentration, P. aeruginosa ΔmexAB-OprM
Method: as §1, §2, §3

Row | Compound | MIC [1] | MIC [2] | MIC [3] | MIC [4] | MIC [5] | MIC [6] | MIC [7] | MIC [8] | MIC [9] | MIC [10] | MIC [11] | MIC [12]
1 | NCCN1CCN(C(=O)N[C@H](C(=O)N[C@H]2Cc3cccc(C(=O)O)c3OB2O)c2c(Cl)cccc2Cl)C(=O)C1=O (single isomer, unassigned) [Example 225] | > 128 µg/mL | > 128 µg/mL | 32 to 64 µg/mL (≈ 54 to 108 µM) | > 128 µg/mL | > 128 µg/mL | > 128 µg/mL | > 128 µg/mL | > 128 µg/mL | > 128 µg/mL | > 128 µg/mL | > 128 µg/mL | > 128 µg/mL
2 | NC1(CN2CCN(C(=O)N[C@@H](C(=O)N[C@H]3Cc4cccc(C(=O)O)c4OB3O)c3cc(F)c(O)c(F)c3F)C(=O)C2=O)CC1 (single isomer, unassigned) [Example 244] | 32 to 64 µg/mL (≈ 51.7 to 103 µM) | > 128 µg/mL | < 0.25 µg/mL | 32 to 64 µg/mL (≈ 51.7 to 103 µM) | 2 to 4 µg/mL (≈ 3.23 to 6.46 µM) | 32 to 64 µg/mL (≈ 51.7 to 103 µM) | > 128 µg/mL | 8 to 16 µg/mL (≈ 12.9 to 25.8 µM) | < 0.25 µg/mL | > 128 µg/mL | 32 to 64 µg/mL (≈ 51.7 to 103 µM) | 2 to 4 µg/mL (≈ 3.23 to 6.46 µM)
3 | NC1(CN2CCN(C(=O)NC(C(=O)N[C@H]3Cc4cccc(C(=O)O)c4OB3O)c3cc(F)c(O)c(F)c3F)C(=O)C2=O)CC1 (single isomer, unassigned) [Example 245] | > 128 µg/mL | > 128 µg/mL | 2 to 4 µg/mL (≈ 3.23 to 6.46 µM) | > 128 µg/mL | 8 to 16 µg/mL (≈ 12.9 to 25.8 µM) | > 128 µg/mL | > 128 µg/mL | > 128 µg/mL | 0.5 to 1 µg/mL (≈ 0.807 to 1.61 µM) | > 128 µg/mL | > 128 µg/mL | 8 to 16 µg/mL (≈ 12.9 to 25.8 µM)
4 | NCCCN1CCN(C(=O)N[C@@H](C(=O)N[C@H]2Cc3cccc(C(=O)O)c3OB2O)c2cc(F)c(O)c(F)c2F)C(=O)C1=O (single isomer, unassigned) [Example 246] | 32 to 64 µg/mL (≈ 52.7 to 105 µM) | > 128 µg/mL | 2 to 4 µg/mL (≈ 3.29 to 6.59 µM) | > 128 µg/mL | 8 to 16 µg/mL (≈ 13.2 to 26.3 µM) | > 128 µg/mL | > 128 µg/mL | 32 to 64 µg/mL (≈ 52.7 to 105 µM) | 0.5 to 1 µg/mL (≈ 0.823 to 1.65 µM) | > 128 µg/mL | > 128 µg/mL | 8 to 16 µg/mL (≈ 13.2 to 26.3 µM)
